We go through 26 molecules from ChEMBL document CHEMBL3596152, “Synthesis of 1-O-acetylbritannilactone analogues from Inula britannica and in vitro evaluation of their anticancer potential” (Medchemcomm, 2014).

The subject of one test is HCT-116. The experiment in a line: Cytotoxicity against human HCT116 cells assessed as reduction in cell viability incubated for 72 hrs by SRB assay. The conditions noted are these: HCT-116, 72 h. The test is classed as functional, cell-based. In general terms: In SRB staining, fixed cells bind dye roughly in proportion to their protein.
Test [1] concerns HeLa. The experiment in a line: Cytotoxicity against human HeLa cells assessed as reduction in cell viability incubated for 72 hrs by SRB assay. Format: functional, cell-based.
A short description of test [2]: Cytotoxicity against human SGC7901 cells assessed as reduction in cell viability incubated for 72 hrs by SRB assay. The test is classed as functional, cell-based. As to conditions: SGC-7901, 72 h.
Test [3] has as its system HeLa. The experiment in a line: Induction of apoptosis in human HeLa cells assessed as increase in cleaved caspase-3 levels at 3 uM incubated for 48 hrs by Western blotting method. Format: functional, cell-based. In general terms: Immunoblotting shows a protein as a band on a membrane.
Test [4] is described as follows: Thiol reactivity in DMSO-d6 solution assessed as formation of 1-O-acetyl-6-O-benzoyl-13-(2-hydroxyethylthiol) britannilactone at 0.05 mmol in presence of beta-mercaptoethanol by 1H NMR Michael acceptor assay.
Test [5] in a line: Thiol reactivity in DMSO-d6 solution at 0.05 mmol in presence of beta-mercaptoethanol by 1H NMR Michael acceptor assay.
Test [6] relates to HeLa. Description: Induction of apoptosis in human HeLa cells assessed as late apoptotic cells levels at 10 uM incubated for 72 hrs by annexin V-FITC and propidium iodide staining based flow cytometry (reference value: 2.8%). The test is classed as functional.
The subject of test [7] is HeLa. The experiment in a line: Induction of apoptosis in human HeLa cells assessed as necrotic cells levels at 10 uM incubated for 72 hrs by annexin V-FITC and propidium iodide staining based flow cytometry (reference value: 0.2%). The test is classed as functional. On the technique in general: In flow cytometry, cells or beads pass a laser one at a time.
The nature of test [8]: Thiol reactivity in DMSO-d6 solution assessed as formation of 1,6-O,O-diacetyl-13-(2-hydroxyethylthiol) britannilactone at 0.05 mmol in presence of beta-mercaptoethanol by 1H NMR Michael acceptor assay.
In test [9] the test system is HeLa. Description: Induction of apoptosis in human HeLa cells assessed as early apoptotic cells levels at 10 uM incubated for 72 hrs by annexin V-FITC and propidium iodide staining based flow cytometry (reference value: 1.4%). Format: functional.

Active and inactive are the calls of the source. The rule behind the calls is not given here.

As for `C=C1C(=O)O[C@@H]2CC(C)=C([C@@H](C)CCCOC(C)=O)[C@@H](OC(=O)COc3ccc4c(C(F)(F)F)noc4c3)[C@H]12`, the IC50 – broadly, the concentration needed to halve the response being measured – in the test on HCT-116 worked out at 21.5 µM; in the test with HeLa [1], 19.2 µM; in test [2] it was 19.7 µM.

`COc1cc([C@@H]2c3cc4c(cc3[C@@H](O[C@@H]3O[C@@H]5CO[C@@H](C)O[C@H]5[C@H](O)[C@H]3O)[C@H]3COC(=O)[C@H]23)OCO4)cc(OC)c1O` [ETOPOSIDE]: the IC50 amounted to 2.13 µM in the test on HCT-116, 2.97 µM in the test on HeLa [1] and 6.56 µM in test [2]. In addition, the result in the test on HeLa [3] was Active.

As to `C=C1C(=O)O[C@@H]2CC(C)=C([C@@H](C)CCCOC(C)=O)[C@@H](OC(=O)c3ccc(F)cc3)[C@H]12`, the figures for the half-inhibitory concentration (IC50) (in the test with HCT-116; with HeLa [1]; in [2]) were 14.9 µM, 12 µM and 13.6 µM, respectively.

On to `C=C1C(=O)O[C@@H]2CC(C)=C([C@@H](C)CCCOC(C)=O)[C@@H](OC(=O)COc3cccc4[nH]nnc34)[C@H]12`, for which the results for the IC50 (in the test on HCT-116; in the test on HeLa [1]; in [2]) were 23.7 µM, 23 µM and 21.1 µM, respectively.

As to `C=C1C(=O)O[C@@H]2CC(C)=C([C@@H](C)CCCOC(C)=O)[C@@H](OC(=O)c3cccc(F)c3)[C@H]12`, the figures for the IC50 (in the test on HCT-116; in the test on HeLa [1]; in test [2]) were 14.5 µM, 11.8 µM and 12.9 µM, respectively.

As to `C=C1C(=O)O[C@@H]2CC(C)=C([C@@H](C)CCCOC(C)=O)[C@@H](OC(=O)c3cc(OC)c(OC)c(OC)c3)[C@H]12`, the IC50 in the test with HeLa [1] turned out to be 6.54 µM.

Regarding `CC(=O)OCCC[C@H](C)C1=C(C)C[C@H]2OC(=O)C(CSCCO)[C@H]2[C@@H]1OC(=O)c1ccccc1` (some centres not stated), the IC50 (in the test with HCT-116; in the test with HeLa [1]; in test [2]) was > 100 µM throughout.

Take `C=C1C(=O)O[C@@H]2CC(C)=C([C@@H](C)CCCOC(C)=O)[C@@H](OC(=O)COc3ccc(C(C)=O)cc3)[C@H]12`: the IC50 is 40.1 µM in the test on HCT-116, 43.9 µM with HeLa [1] and 49.6 µM in test [2].

With `C=C1C(=O)O[C@@H]2CC(C)=C([C@@H](C)CCCOC(C)=O)[C@@H](OC(C)=O)[C@H]12`, the results for the IC50 (with HCT-116; in the test with HeLa [1]; in test [2]) were 10.1 µM, 11.2 µM and 15.9 µM, respectively. In addition, the outcome in [4], in test [5] and in test [8] was Active. Also, the Activity in the test with HeLa [6] is on record as 24.4%; in the test with HeLa [7], 11%; with HeLa [9] it was 6.9%.

Take `C=C1C(=O)O[C@@H]2CC(C)=C([C@@H](C)CCCOC(C)=O)[C@@H](OC(=O)COc3ccc(C(=O)OCCC)cc3)[C@H]12`: the IC50 came to 37.5 µM in the test on HCT-116, 22.9 µM with HeLa [1] and 27.7 µM in test [2].

On to `C=C1C(=O)O[C@@H]2CC(C)=C([C@@H](C)CCCOC(C)=O)[C@@H](OC(=O)COc3ccc([N+](=O)[O-])cc3[N+](=O)[O-])[C@H]12`, for which the IC50 (with HCT-116; with HeLa [1]; in test [2]) was > 100 µM in each case.

For the molecule `C=C1C(=O)O[C@@H]2CC(C)=C([C@@H](C)CCCOC(C)=O)[C@@H](O)[C@H]12`, the IC50 with HCT-116 stood at 36.1 µM; in the test on HeLa [1], 32.6 µM; in test [2] it was 47.8 µM.

On to `C=C1C(=O)O[C@@H]2CC(C)=C([C@@H](C)CCCOC(C)=O)[C@@H](OC(=O)CCl)[C@H]12`, for which the IC50 stood at 18.8 µM with HCT-116, 28.5 µM in the test with HeLa [1] and 26.5 µM in test [2].

As to `C=C1C(=O)O[C@@H]2CC(C)=C([C@@H](C)CCCOC(C)=O)[C@@H](OC(=O)CN(CC)CC)[C@H]12`, the IC50 with HCT-116 turned out to be 13.1 µM; in the test with HeLa [1], 10.7 µM; in test [2], 11.6 µM.

Consider `C=C1C(=O)O[C@@H]2CC(C)=C([C@@H](C)CCCOC(C)=O)[C@@H](OC(=O)c3ccc(C)cc3)[C@H]12`, for which the IC50 with HeLa [1] stood at 5.46 µM.

Turning to `C=C1C(=O)O[C@@H]2CC(C)=C([C@@H](C)CCCOC(C)=O)[C@@H](OC(=O)COc3cccc(C(C)=O)c3)[C@H]12`, the IC50 in the test with HCT-116 came to 45.5 µM; with HeLa [1] it was 38.6 µM; in test [2], 46.1 µM.

Consider `C=C1C(=O)O[C@@H]2CC(C)=C([C@@H](C)CCCOC(C)=O)[C@@H](OC(=O)COc3ccc4c(CC)noc4c3)[C@H]12`, for which the IC50 in the test with HCT-116 is 18.3 µM; with HeLa [1] it was 21.7 µM; in test [2], 21.2 µM.

Take `CC(=O)OCCC[C@H](C)C1=C(C)C[C@H]2OC(=O)C(CSCCO)[C@H]2[C@@H]1OC(C)=O` (some centres not stated): the IC50 (in the test with HCT-116; in the test with HeLa [1]; in test [2]) was > 100 µM each time.

For `O=c1[nH]cc(F)c(=O)[nH]1` [FLUOROURACIL], the IC50 in the test on HCT-116 amounted to 4.9 µM; with HeLa [1] it was 4.71 µM; in test [2], 0.86 µM.

Regarding `C=C1C(=O)O[C@@H]2CC(C)=C([C@@H](C)CCCOC(C)=O)[C@@H](OC(=O)c3ccc(OC)cc3)[C@H]12`, the IC50 with HeLa [1] is 8.85 µM.

Turning to `C=C1C(=O)O[C@@H]2CC(C)=C([C@@H](C)CCCOC(C)=O)[C@@H](OC(=O)CN3CCCC3)[C@H]12`, the IC50 was found to be 20.5 µM with HCT-116, 12.7 µM with HeLa [1] and 18.4 µM in test [2].

For `C=C1C(=O)O[C@@H]2CC(C)=C([C@@H](C)CCCOC(C)=O)[C@@H](OC(=O)CN3CCOCC3)[C@H]12`, the IC50 was 16.3 µM in the test with HCT-116, 13.9 µM in the test on HeLa [1] and 14.1 µM in [2].

For the molecule `C=C1C(=O)O[C@@H]2CC(C)=C([C@@H](C)CCCOC(C)=O)[C@@H](OC(=O)c3ccc([N+](=O)[O-])cc3)[C@H]12`, the IC50 in the test on HeLa [1] was determined as 11.3 µM.

On to `C=C1C(=O)O[C@@H]2CC(C)=C([C@@H](C)CCCOC(C)=O)[C@@H](OC(=O)COc3cccc4cccnc34)[C@H]12`, for which the figures for the IC50 (in the test with HCT-116; in the test with HeLa [1]; in test [2]) were 12.1 µM, 8.94 µM and 14.3 µM, respectively.

As for `C=C1C(=O)O[C@@H]2CC(C)=C([C@@H](C)CCCOC(C)=O)[C@@H](OC(=O)c3ccccc3F)[C@H]12`, the IC50 stood at 21.1 µM in the test on HCT-116, 17 µM with HeLa [1] and 19.3 µM in [2].

As for `C=C1C(=O)O[C@@H]2CC(C)=C([C@@H](C)CCCOC(C)=O)[C@@H](OC(=O)CN3CCCCC3)[C@H]12`, the IC50 turned out to be 13.9 µM in the test on HCT-116, 10.3 µM with HeLa [1] and 11.5 µM in test [2].
